Assay results published in ChEMBL document CHEMBL5634164, “Absolute Configuration of Oxabornyl Polyenes Prugosenes A1-A3 and Structural Revision of Prugosene A2” (J Nat Prod, 2024).

How the values were obtained:
[1] = system: Respiratory syncytial virus; assay: Antiviral activity against RSV A2 ATCC VR-1540 infected in HEp-2 cells assessed as inhibition of virus induced cytopathic effect measured after 72 hrs; type: functional, organism-based; settings: human respiratory syncytial virus, A2 ATCC VR-1540, HEp-2, 72 h
[2] = Cytotoxicity against HEp-2 cells; type: toxicity, cell-based; settings: human

| Structure (SMILES) | IC50 [1] [µM] | CC50 [2] [µM] |
| --- | --- | --- |
| CC1=C[C@](C)(O)[C@H](C)O[C@@H]1/C(C)=C/C=C/C=C/C=C/C=C/C1(C)C2OC(=O)C1(C)C(=O)C2C (stereo partly drawn) | 6.3 | > 100 |
| CC1=C[C@@](C)(O)[C@@H](/C(C)=C/C=C/C=C/C=C/C=C/C2(C)C3OC(=O)C2(C)C(=O)C3C)O[C@H]1C (stereo partly drawn) | 25 | > 100 |
| CC1=C[C@@](C)(O)[C@H](/C(C)=C/C=C/C=C/C=C/C=C/C2(C)C3OC(=O)C2(C)C(=O)C3C)O[C@H]1C (stereo partly drawn) | 12 | > 100 |
| NC(=O)c1ncn([C@@H]2O[C@H](CO)[C@@H](O)[C@H]2O)n1 [RIBAVIRIN] | 15 | > 100 |
